Source: the supplement of paper PMC10627819

Tests used:
Conditions in all cases: main component drawn
[1] = test system: S. aureus Newman; assay: fitness (endpoint OD595 vs no drug) (fraction); higher = more growth
Outline: (§1)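 Volumes were 30 µl per well, or 55 µl for S. pneumoniae, in 384-well plates inoculated at OD595 0.01. Media were TSB, LB Lennox or CY at 37 °C, and OD595 was read every 30 min for 14 h with first-reading background subtraction. Fitness is the ratio of optical density at stationary-phase entry to the robust mean of no-drug controls. That ratio is capped at 1.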

[2] = test system: B. subtilis 168; assay: as above
Outline: as §1

[3] = test system: S. aureus DSM 20231; assay: Bliss interaction score (quartile over a dose matrix) (fitness difference); higher = more antagonism (negative = synergy)
Outline: (§2)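 Growth was read as OD595 when cultures entered stationary phase, and each value was divided by the plate's robust no-drug mean and capped at 1. This normalised ratio is the fitness value, and fitness for each single drug came from the combination data. The Bliss score subtracts the expected fitness, taken as the product, from the observed fitness and is given as quartiles across technical, biological and donor/recipient replicates.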

[4] = test system: S. aureus Newman; assay: as above
Outline: as §2

[5] = test system: B. subtilis 168; assay: as above
Outline: as §2

[6] = test system: S. pneumoniae D39V; assay: as above
Outline: as §2

[7] = first compound 37.5 µg/mL, partner 0.625 µg/mL
[8] = first compound 37.5 µg/mL, partner 1.25 µg/mL
[9] = first compound 37.5 µg/mL, partner 2.5 µg/mL
[10] = first compound 75 µg/mL, partner 0.625 µg/mL
[11] = first compound 75 µg/mL, partner 1.25 µg/mL
[12] = first compound 75 µg/mL, partner 2.5 µg/mL
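For Bliss interaction score (quartile over a dose matrix) in this document: first quartile when negative (synergy) and third quartile when positive (antagonism).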

CC[C@H](C)[C@H](N)C1=N[C@H](C(=O)N[C@@H](CC(C)C)C(=O)N[C@H](CCC(=O)O)C(=O)N[C@H](C(=O)N[C@H]2CCCCNC(=O)[C@H](CC(N)=O)NC(=O)[C@@H](CC(=O)O)NC(=O)[C@H](Cc3cnc[nH]3)NC(=O)[C@@H](Cc3ccccc3)NC(=O)[C@H]([C@@H](C)CC)NC(=O)[C@@H](CCCN)NC2=O)[C@@H](C)CC)CS1 [Bacitracin] + CO/N=C(\C(=O)N[C@@H]1C(=O)N2C(C(=O)O)=C(COC(N)=O)CS[C@H]12)c1ccco1 [Cefuroxime]
fitness ([1]; first compound 18.75 µg/mL, partner 0.04875 µg/mL, one replicate): 0.634
fitness ([1]; first compound 18.75 µg/mL, partner 0.0975 µg/mL, one replicate): 0.599
fitness ([1]; first compound 18.75 µg/mL, partner 0.195 µg/mL, one replicate): 0.287
fitness ([1]; first compound 37.5 µg/mL, partner 0.04875 µg/mL, one replicate): 0.0709
fitness ([1]; first compound 37.5 µg/mL, partner 0.0975 µg/mL, one replicate): 0.0498
fitness ([1]; first compound 37.5 µg/mL, partner 0.195 µg/mL, one replicate): 0.025
fitness ([1]; first compound 75 µg/mL, partner 0.04875 µg/mL, one replicate): 0.0097
fitness ([1]; first compound 75 µg/mL, partner 0.0975 µg/mL, one replicate): 0.0027
fitness ([1]; first compound 75 µg/mL, partner 0.195 µg/mL, one replicate): 0.0172
fitness ([2]; first compound 37.5 µg/mL, partner 0.04875 µg/mL): 0.691
fitness ([2]; first compound 37.5 µg/mL, partner 0.0975 µg/mL): 0.629
fitness ([2]; first compound 37.5 µg/mL, partner 0.195 µg/mL): 0.338
fitness ([2]; first compound 37.5 µg/mL, partner 0.39 µg/mL, one replicate): 0.293
fitness ([2]; first compound 37.5 µg/mL, partner 0.78 µg/mL, one replicate): 0.266
fitness ([2]; first compound 37.5 µg/mL, partner 1.562 µg/mL, one replicate): 0.419
fitness ([2]; first compound 37.5 µg/mL, partner 3.125 µg/mL, one replicate): 0.351
fitness ([2]; first compound 37.5 µg/mL, partner 6.25 µg/mL, one replicate): 0.269
fitness ([2]; first compound 75 µg/mL, partner 0.04875 µg/mL): 0.612
fitness ([2]; first compound 75 µg/mL, partner 0.0975 µg/mL): 0.529
fitness ([2]; first compound 75 µg/mL, partner 0.195 µg/mL): 0.334
fitness ([2]; first compound 75 µg/mL, partner 0.39 µg/mL, one replicate): 0.089
fitness ([2]; first compound 75 µg/mL, partner 0.78 µg/mL, one replicate): 0.0839
fitness ([2]; first compound 75 µg/mL, partner 1.562 µg/mL, one replicate): 0.352
fitness ([2]; first compound 75 µg/mL, partner 3.125 µg/mL, one replicate): 0.323
fitness ([2]; first compound 75 µg/mL, partner 6.25 µg/mL, one replicate): 0.257
fitness ([2]; first compound 150 µg/mL, partner 0.0975 µg/mL): 0.275
fitness ([2]; first compound 150 µg/mL, partner 0.195 µg/mL): 0.0599
fitness ([2]; first compound 150 µg/mL, partner 0.39 µg/mL, one replicate): 0.0217
fitness ([2]; first compound 150 µg/mL, partner 0.78 µg/mL, one replicate): 0.0185
fitness ([2]; first compound 150 µg/mL, partner 1.562 µg/mL, one replicate): 0.306
fitness ([2]; first compound 150 µg/mL, partner 3.125 µg/mL, one replicate): 0.238
fitness ([2]; first compound 150 µg/mL, partner 6.25 µg/mL, one replicate): 0.155
Bliss interaction score [3]: -0.188
Bliss interaction score [4]: -0.0659
Bliss interaction score [5]: -0.0903
Bliss interaction score [6]: 0.0554

CC[C@H](C)[C@H](N)C1=N[C@H](C(=O)N[C@@H](CC(C)C)C(=O)N[C@H](CCC(=O)O)C(=O)N[C@H](C(=O)N[C@H]2CCCCNC(=O)[C@H](CC(N)=O)NC(=O)[C@@H](CC(=O)O)NC(=O)[C@H](Cc3cnc[nH]3)NC(=O)[C@@H](Cc3ccccc3)NC(=O)[C@H]([C@@H](C)CC)NC(=O)[C@@H](CCCN)NC2=O)[C@@H](C)CC)CS1 [Bacitracin] + Cc1ncc([N+](=O)[O-])n1CCO [Metronidazole]
fitness ([1]; first compound 18.75 µg/mL, partner 0.625 µg/mL): 0.741
fitness ([1]; first compound 18.75 µg/mL, partner 0.781 µg/mL): 0.702
fitness ([1]; first compound 18.75 µg/mL, partner 1.25 µg/mL): 0.757
fitness ([1]; first compound 18.75 µg/mL, partner 1.562 µg/mL): 0.716
fitness ([1]; first compound 18.75 µg/mL, partner 2.5 µg/mL): 0.743
fitness ([1]; first compound 18.75 µg/mL, partner 3.124 µg/mL): 0.687
fitness [1, 7]: 0.308
fitness ([1]; first compound 37.5 µg/mL, partner 0.781 µg/mL): 0.21
fitness [1, 8]: 0.243
fitness ([1]; first compound 37.5 µg/mL, partner 1.562 µg/mL): 0.243
fitness [1, 9]: 0.181
fitness ([1]; first compound 37.5 µg/mL, partner 3.124 µg/mL): 0.26
fitness [1, 10]: 0.0054
fitness ([1]; first compound 75 µg/mL, partner 0.781 µg/mL): 0.03
fitness [1, 11]: 0.0112
fitness ([1]; first compound 75 µg/mL, partner 1.562 µg/mL): 0.0279
fitness [1, 12]: 0.0054
fitness ([1]; first compound 75 µg/mL, partner 3.124 µg/mL): 0.0683
fitness [2, 7]: 0.956
fitness [2, 8]: 0.931
fitness [2, 9]: 0.902
fitness [2, 10]: 0.964
fitness [2, 11]: 0.931
fitness [2, 12]: 0.903
fitness ([2]; first compound 150 µg/mL, partner 2.5 µg/mL): 0.811
Bliss interaction score [3]: 0.0734
Bliss interaction score [4]: 0.0714
Bliss interaction score [5]: 0.103
Bliss interaction score [6]: 0.127

CC[C@H](C)[C@H](N)C1=N[C@H](C(=O)N[C@@H](CC(C)C)C(=O)N[C@H](CCC(=O)O)C(=O)N[C@H](C(=O)N[C@H]2CCCCNC(=O)[C@H](CC(N)=O)NC(=O)[C@@H](CC(=O)O)NC(=O)[C@H](Cc3cnc[nH]3)NC(=O)[C@@H](Cc3ccccc3)NC(=O)[C@H]([C@@H](C)CC)NC(=O)[C@@H](CCCN)NC2=O)[C@@H](C)CC)CS1 [Bacitracin] + Cc1onc(-c2ccccc2)c1C(=O)N[C@@H]1C(=O)N2[C@@H]1SC(C)(C)[C@@H]2C(=O)O [Oxacillin]
fitness ([1]; first compound 18.75 µg/mL, partner 0.0156 µg/mL): 0.534
fitness ([1]; first compound 18.75 µg/mL, partner 0.0625 µg/mL): 0.0815
fitness ([1]; first compound 37.5 µg/mL, partner 0.0156 µg/mL): 0.0937
fitness ([1]; first compound 37.5 µg/mL, partner 0.0312 µg/mL): 0.0243
fitness ([1]; first compound 37.5 µg/mL, partner 0.0625 µg/mL): 0.0177
fitness ([1]; first compound 75 µg/mL, partner 0.0156 µg/mL): 0.0408
fitness ([1]; first compound 75 µg/mL, partner 0.0312 µg/mL): 0.0443
fitness ([1]; first compound 75 µg/mL, partner 0.0625 µg/mL): 0.0488
fitness ([2]; first compound 37.5 µg/mL, partner 0.002 µg/mL): 0.958
fitness ([2]; first compound 37.5 µg/mL, partner 0.004 µg/mL): 0.955
fitness ([2]; first compound 37.5 µg/mL, partner 0.0078 µg/mL, one replicate): 0.79
fitness ([2]; first compound 37.5 µg/mL, partner 0.008 µg/mL): 0.924
fitness ([2]; first compound 37.5 µg/mL, partner 0.0155 µg/mL, one replicate): 0.782
fitness ([2]; first compound 37.5 µg/mL, partner 0.031 µg/mL, one replicate): 0.742
fitness ([2]; first compound 37.5 µg/mL, partner 0.075 µg/mL, one replicate): 0.58
fitness ([2]; first compound 37.5 µg/mL, partner 0.15 µg/mL, one replicate): 0.0238
fitness ([2]; first compound 37.5 µg/mL, partner 0.3 µg/mL, one replicate): 0.0295
fitness ([2]; first compound 75 µg/mL, partner 0.002 µg/mL): 0.959
fitness ([2]; first compound 75 µg/mL, partner 0.004 µg/mL): 0.913
fitness ([2]; first compound 75 µg/mL, partner 0.0078 µg/mL, one replicate): 0.778
fitness ([2]; first compound 75 µg/mL, partner 0.008 µg/mL): 0.835
fitness ([2]; first compound 75 µg/mL, partner 0.0155 µg/mL, one replicate): 0.76
fitness ([2]; first compound 75 µg/mL, partner 0.031 µg/mL, one replicate): 0.701
fitness ([2]; first compound 75 µg/mL, partner 0.075 µg/mL, one replicate): 0.496
fitness ([2]; first compound 75 µg/mL, partner 0.15 µg/mL, one replicate): 0.0193
fitness ([2]; first compound 75 µg/mL, partner 0.3 µg/mL, one replicate): 0.0177
fitness ([2]; first compound 150 µg/mL, partner 0.0078 µg/mL, one replicate): 0.447
fitness ([2]; first compound 150 µg/mL, partner 0.0155 µg/mL, one replicate): 0.36
fitness ([2]; first compound 150 µg/mL, partner 0.031 µg/mL, one replicate): 0.316
fitness ([2]; first compound 150 µg/mL, partner 0.075 µg/mL, one replicate): 0.242
fitness ([2]; first compound 150 µg/mL, partner 0.15 µg/mL, one replicate): 0.0097
fitness ([2]; first compound 150 µg/mL, partner 0.3 µg/mL, one replicate): 0.0106
Bliss interaction score [3]: 0.0803
Bliss interaction score [4]: -0.118
Bliss interaction score [5]: -0.0456
Bliss interaction score [6]: -0.107
